Six compounds from patent publication US20040254161A1, “New benzothiazine and benzothiadiazine compounds” (priority 2003, published 2004) can be followed below.

Series [1] concerns AMPA receptors. Kind of series: Excitatory currents induced by AMPA in Xenopus oocytes (two-electrode voltage-clamp). The format is cell-based. The settings on record: Xenopus oocytes injected with rat cerebral cortex poly(A+) mRNA; AMPA 10 μM; 20-24° C., OR2 medium. The procedure: Study of the Excitatory Currents Induced by AMPA in Xenopus oocytes
mRNA's are prepared from cerebral cortex of male Wistar rats by the guanidinium thiocyanate/phenol/chloroform method. The poly (A^+) mRNA's are isolated by chromatography on oligo-dT cellulose and injected at a level of 50 ng per oocyte. The oocytes are incubated for 2 to 3 days at 18° C. to permit expression of the receptors and are then stored at 8-10° C.
Electrophysiological recording is carried out in a Plexiglass® chamber at 20-24° C. in OR2 medium (J. Exp. Zool., 1973, 184, 321-334) by the “voltage-clamp” method using two electrodes, with a third electrode placed in the bath serving as reference.
All the compounds are applied via the incubation medium and the electric current is measured at the end of the application period. AMPA is used in a concentration of 10 μM. For each compound studied, the concentration that doubles (EC2X) or quintuples (EC5X) the intensity of the current induced by AMPA alone (5 to 50 nA) is determined.
On the technique in general: In two-electrode clamp one electrode senses voltage and the other passes current.

What is called melting point is the temperature of the solid-liquid transition.

As to `CS(=O)(=O)NCc1ccc(Oc2ccc3c(c2)S(=O)(=O)NC2CCCN32)cc1` (stereo not drawn) [Example 21, N-{4-[(5,5-Dioxido-2,3,3a,4-tetrahydro-1H-pyrrolo[2,1-c][1,2,4]-benzothiadiazin-7-yl)oxy]benzyl}methanesulphonamide], in series [1], the “EC2X (concentration that doubles the intensity of the current induced by AMPA alone)” value (from here on “EC2X”) turned out to be 0.1 µM and the “EC5X (concentration that quintuples the intensity of the current induced by AMPA alone)” value (“EC5X” for short) stood at 0.56 µM.
`CC(C)S(=O)(=O)NCc1cccc(Oc2ccc3c(c2)S(=O)(=O)NC2CCCN32)c1` (stereo not drawn) [Example 18, N-{3-[(5,5-Dioxido-2,3,3a,4-tetrahydro-1H-pyrrolo[2,1-c][1,2,4]-benzothiadiazin-7-yl)oxy]benzyl}propane-2-sulphonamide] registered a melting point of 112 to 118 °C.
Take `CS(=O)(=O)NCc1cccc(Oc2ccc3c(c2)S(=O)(=O)NC2CCCN32)c1` (stereo not drawn) [Example 2, N-{3-[(5,5-Dioxido-2,3,3a,4-tetrahydro-1H-pyrrolo[2,1-c][1,2,4]-benzothiadiazin-7-yl)oxy]benzyl}methanesulphonamide]: in series [1], the “EC2X” value worked out at 0.35 µM and the “EC5X” value amounted to 2.6 µM.
`Cl.NCc1cccc(Oc2ccc3c(c2)S(=O)(=O)NC2CCCN32)c1` (stereo not drawn) [Example 1, {3-[(5,5-Dioxido-2,3,3a,4-tetrahydro-1H-pyrrolo[2,1-c][1,2,4]-benzothiadiazin-7-yl)oxy]phenyl}methanamine hydrochloride]: in series [1], the “EC2X” value is 3.5 µM and the “EC5X” value was 9.2 µM.
Take `CC(=O)NCc1cccc(Oc2ccc3c(c2)S(=O)(=O)NC2CCCN32)c1` (stereo not drawn) [Example 3, N-{3-[(5,5-Dioxido-2,3,3a,4-tetrahydro-1H-pyrrolo[2,1-c][1,2,4]-benzothiadiazin-7-yl)oxy]benzyl}acetamide]: the melting point came out at 58 °C.
`O=S1(=O)NC2CCCN2c2ccc(Oc3cccc(CNS(=O)(=O)C(F)(F)F)c3)cc21` (stereo not drawn) [Example 9, N-{3-[(5,5-Dioxido-2,3,3a,4-tetrahydro-1H-pyrrolo[2,1-c][1,2,4]-benzothiadiazin-7-yl)oxy]benzyl}(trifluoro)methanesulphonamide] yielded a melting point of 104 to 113 °C.
